Here are results for one compound from ChEMBL document CHEMBL6120940, “Discovery of N-Aryl-N'-[4-(aryloxy)cyclohexyl]squaramide-Based Inhibitors of LXR/SREBP-1c Signaling Pathway Ameliorating Steatotic Liver Disease: Navigating the Role of SIRT6 Activation” (J Med Chem, 2024).

Calls of active or inactive are those of the source. The rule behind the calls is not given here.

The subject of data set [1] is HepG2. Description: Downregulation of LXR level in human HepG2 cells transfected with SIRT6 SiRNA at 10 uM preincubated for 30 mins followed by T0901317 addition and measured after 12 hrs. The data set is classed as functional, cell-based. The following applies: time 12.5 hrs.
Data set [2] addresses T1, CYP1A2 (Homo sapiens, UniProt P05177).
T1 sequence (P05177 whole entry): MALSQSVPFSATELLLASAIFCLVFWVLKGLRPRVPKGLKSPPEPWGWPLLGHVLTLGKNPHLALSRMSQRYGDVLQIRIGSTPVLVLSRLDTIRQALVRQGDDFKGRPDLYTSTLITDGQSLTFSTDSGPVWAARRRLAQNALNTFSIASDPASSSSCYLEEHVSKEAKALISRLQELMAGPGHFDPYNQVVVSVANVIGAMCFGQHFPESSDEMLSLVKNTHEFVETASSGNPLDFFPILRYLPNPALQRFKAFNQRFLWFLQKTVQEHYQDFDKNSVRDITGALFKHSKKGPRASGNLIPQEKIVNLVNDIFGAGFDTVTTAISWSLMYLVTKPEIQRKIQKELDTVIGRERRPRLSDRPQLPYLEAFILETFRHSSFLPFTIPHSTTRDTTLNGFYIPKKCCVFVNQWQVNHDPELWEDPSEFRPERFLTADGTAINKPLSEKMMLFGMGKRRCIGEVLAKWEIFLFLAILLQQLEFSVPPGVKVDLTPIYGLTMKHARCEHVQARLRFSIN
The data set is described as follows: Inhibition of CYP1A2 in human liver microsomes at 10 uM using phenacetin as substrate preincubated for 5 mins followed by NADPH generating system addition and measured after 15 mins relative to control. The data set is classed as ADME, Microsome. The note with it: probe phenacetin, time 20 min. (Microsomes from liver hold many membrane-bound enzymes, among them those of drug oxidation.)

Data set [3] has as its system HepG2. The data set is described as follows: Downregulation of FASN gene expression in human HepG2 cells in presence of T0901317 by RNA sequencing analysis. The data set is classed as functional, cell-based.
For data set [4], the system named is Mus musculus. Description: Anti-lipogenic activity against high fat died induced male C57BL/6J mouse obesity model assessed as reduction AST level in serum at 15 mg/kg, po administered three times per week and measured for 5 weeks. The data set is classed as functional, organism-based.
The test system of data set [5] is HepG2. Description: Downregulation of SCD mRNA level in human HepG2 cells at 10 uM pretreated with compound for 30 mins followed by GW2935 addition and measured after 12 hrs by RT-qPCR analysis. Format: functional, cell-based. The note with it: time 12.5 hrs. On the technique in general: Quantitative PCR measures a nucleic acid by following its amplification.
Data set [6] relates to Mus musculus. Description: Anti-lipogenic activity against high fat died induced male C57BL/6J mouse obesity model assessed as downregulation of Ccl2 mRNA level at 15 mg/kg, po administered three times per week and measured after 5 weeks by RT-qPCT analysis. The data set is classed as functional, organism-based.
Data set [7] concerns the target T2, Sterol regulatory element-binding protein 1 (Homo sapiens) (UniProt P36956).
T2 sequence (whole entry): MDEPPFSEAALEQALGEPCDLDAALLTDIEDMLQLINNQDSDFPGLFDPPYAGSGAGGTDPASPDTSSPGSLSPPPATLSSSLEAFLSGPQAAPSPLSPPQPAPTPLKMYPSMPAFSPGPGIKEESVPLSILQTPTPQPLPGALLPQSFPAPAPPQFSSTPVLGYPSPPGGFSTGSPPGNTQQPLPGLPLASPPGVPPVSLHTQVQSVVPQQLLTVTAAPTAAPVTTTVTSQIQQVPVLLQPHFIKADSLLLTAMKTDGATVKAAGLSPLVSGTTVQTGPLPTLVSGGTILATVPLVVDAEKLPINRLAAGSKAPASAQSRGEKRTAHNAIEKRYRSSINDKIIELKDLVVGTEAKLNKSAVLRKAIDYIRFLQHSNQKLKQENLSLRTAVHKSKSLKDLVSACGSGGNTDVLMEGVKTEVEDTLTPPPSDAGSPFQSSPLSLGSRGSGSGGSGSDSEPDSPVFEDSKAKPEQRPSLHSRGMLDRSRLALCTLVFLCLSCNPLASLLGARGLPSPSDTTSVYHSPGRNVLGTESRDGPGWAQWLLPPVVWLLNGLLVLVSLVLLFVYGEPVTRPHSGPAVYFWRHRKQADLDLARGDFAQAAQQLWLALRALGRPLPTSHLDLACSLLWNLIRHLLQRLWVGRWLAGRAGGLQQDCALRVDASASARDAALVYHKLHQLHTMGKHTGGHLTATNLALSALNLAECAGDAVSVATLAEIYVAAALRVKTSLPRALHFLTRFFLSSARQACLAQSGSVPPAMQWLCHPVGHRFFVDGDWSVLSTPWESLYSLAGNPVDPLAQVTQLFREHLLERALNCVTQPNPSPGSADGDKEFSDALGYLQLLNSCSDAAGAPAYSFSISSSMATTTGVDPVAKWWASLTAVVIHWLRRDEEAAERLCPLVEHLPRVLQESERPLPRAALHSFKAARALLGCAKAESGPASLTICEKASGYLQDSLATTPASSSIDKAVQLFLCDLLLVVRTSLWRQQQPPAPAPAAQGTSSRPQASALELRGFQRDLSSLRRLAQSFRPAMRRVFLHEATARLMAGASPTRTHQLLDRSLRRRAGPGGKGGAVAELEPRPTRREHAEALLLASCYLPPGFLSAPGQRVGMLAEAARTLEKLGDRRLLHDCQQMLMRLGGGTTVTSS
The data set is described as follows: Inhibition of SREBP-1c transcriptional activity in human HepG2 cells expressing LXRalpha/RXRalpha assessed as reduction in SRE-luciferase level at 10 uM pretreated with compound for 30 mins followed by T0901317 addition and measured after 12 hrs by Dual-Glo luciferase assay relative to control. The data set is classed as cell-based. The following applies: time 12.5 hrs.

Data set [8] has as its target T2, Sterol regulatory element-binding protein 1 (Homo sapiens). The data set is described as follows: Inhibition of SREBP-1c transcriptional activity in human HepG2 cells expressing LXRalpha/RXRalpha assessed as reduction in SRE-luciferase level pretreated with compound for 30 mins followed by T0901317 addition and measured after 12 hrs by Dual-Glo luciferase assay. Format: cell-based. The following applies: dose 2.5-5 µM, time 12.5 hrs.

For data set [9], the system named is Mus musculus. Description: Anti-lipogenic activity against high fat died induced male C57BL/6J mouse obesity model assessed as downregulation of Cxcl1 mRNA level at 15 mg/kg, po administered three times per week and measured after 5 weeks by RT-qPCT analysis. Format: functional, organism-based.
Data set [10] is described as follows: (§1) Downregulation of SREBP-1c mRNA expression in human HepG2 cells pretreated with compound for 30 mins followed by T0901317 addition and measured after 12 hrs by RT-qPCR analysis. The data set is classed as functional, cell-based.
Data set [11] concerns HepG2. The data set is described as §1. Format: functional, cell-based. The note with it: dose 0.01-100 µM, time 12.5 hrs.
The target of data set [12] is CYP3A4 (Homo sapiens, UniProt P08684). Description: Inhibition of CYP3A4 in human liver microsomes at 10 uM using midazolam as substrate preincubated for 5 mins followed by NADPH generating system addition and measured after 15 mins relative to control. The data set is classed as ADME, Microsome. The note with it: probe midazolam, time 20 min.
Data set [13] deals with HepG2. The data set is described as follows: Downregulation of SREBP-1c expression level in nucleus of human HepG2 cells at 10 uM pretreated with compound for 30 mins followed by T0901317 addition and measured after 12 hrs by immunoblot analysis. Format: functional, cell-based. The following applies: time 12.5 hrs.
The subject of data set [14] is Hepatocyte. Description: Effect on Acox-2 gene expression in mouse hepatocyte. Format: functional, cell-based.
Data set [15] deals with HepG2. The data set is described as follows: Downregulation of ACACA level in human HepG2 cells at 10 uM preincubated for 30 mins followed by OSS128167 addition and measured after 12 hrs. The data set is classed as functional, cell-based. The note with it: time 12.5 hrs.
The test system of data set [16] is Mus musculus. The data set is described as follows: Anti-lipogenic activity against high fat died induced male C57BL/6J mouse obesity model assessed as downregulation of F4/80 mRNA level at 15 mg/kg, po administered three times per week and measured after 5 weeks by RT-qPCT analysis. The data set is classed as functional, organism-based.

Sequence of CYP3A4 (P08684 whole entry): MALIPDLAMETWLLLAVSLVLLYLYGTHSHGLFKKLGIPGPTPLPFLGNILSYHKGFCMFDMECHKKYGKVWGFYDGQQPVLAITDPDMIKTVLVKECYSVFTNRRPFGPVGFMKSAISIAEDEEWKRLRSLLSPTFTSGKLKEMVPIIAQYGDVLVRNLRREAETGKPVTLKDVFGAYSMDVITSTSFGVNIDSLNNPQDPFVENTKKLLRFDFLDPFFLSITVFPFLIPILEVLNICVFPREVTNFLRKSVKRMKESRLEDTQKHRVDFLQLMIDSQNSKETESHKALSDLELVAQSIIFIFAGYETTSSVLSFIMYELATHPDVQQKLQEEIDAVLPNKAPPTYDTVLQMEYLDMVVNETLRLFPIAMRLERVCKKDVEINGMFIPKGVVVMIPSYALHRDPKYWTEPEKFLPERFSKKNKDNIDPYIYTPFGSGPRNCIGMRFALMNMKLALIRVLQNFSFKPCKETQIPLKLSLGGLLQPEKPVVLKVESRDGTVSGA

With `COc1ccccc1Nc1c(N[C@H]2CC[C@H](Oc3ccc([N+](=O)[O-])cc3)CC2)c(=O)c1=O`, the result in data set [1], in data set [14] and in data set [15] was inactive. For the same compound, the inhibition at 0.25 h, 10 µM in [2] is 98%; in [12], 91.6%. The outcome in data set [3], in data set [4], in [5], in [6], in [9] and in data set [13] was Active. Further, in data set [16], the result was Active. Further, the inhibition was 27.7% in data set [7] and “Dose-dependent-effect” in data set [8]. For the same compound, the IC50 in data set [10] was 2500 nM. In addition, in data set [11], the Activity result was “Dose-dependent-effect”.

What is called inhibition is the share of the control response that was lost under treatment. For orientation: IC50 means the concentration that inhibits the measured activity by half.
